“And” between values parts separate entries of the source, which are not always exact repeats. Equal entries are not always repeated.
How the values were obtained:
HGC27-S cells = experiment: VEGFA in cell culture medium (ELISA); format: cell-based, human; settings: 10 µM, 48 h, untreated 3.82
Experimental: The amount of VEGFA secreted in the culture medium by HGC27-S/R and AGS treated cells was measured using a highly sensitive Enzyme-Linked Immunosorbent Assay (ELISA), Quantikine Kit ELISA (R&D Systems, Minneapolis, MN, USA), according to the manufacturer’s instructions. The measured values were normalized to the number of cells.

[1] = test system: circulating cytokines (eotaxin, G-CSF, p40IL-12); experiment: Serum cytokine quantification (Bio-Plex); format: in vivo, CD1-nude female mice
Experimental: Serum levels of 23 cytokines [G-CSF, GM-CSF, GRO/KC (CXCL1), IFN-γ, IL-1α, IL-1β, IL-2, IL-3, IL-4, IL-5, IL-6, IL-9, IL-10, IL-12 (p70), IL-13, IL-17 A, IL-18, MCP-1 (CCL2), MIP-1α, MIP-1β, RANTES, TNF-α, and eotaxin] were measured using Bio-Plex Pro Rat Cytokine 23-Plex™ (#M60009RDPD) magnetic bead-based assays (Bio-Rad Laboratories) on the Bio-Plex® platform (Bio-Rad), according to the manufacturer’s instructions. […] Cytokine expression (pg/mL) for each sample was multiplied by the dilution factor prior to the percent baseline calculation.

CB2R = CB2R affinity (literature values); format: binding; settings: CB2R vs CB1R
NCI-N87_LUC cell line = experiment: Mouse model by intraperitoneal NCI-N87_LUC inoculation, tumor growth by IVIS; format: in vivo, CD1-nude female mice; settings: for BLI measurement, individual animals: listed as FI-5; for tumor volume vs control group (vehicle): day 41
Experimental: EighteenCD1-nude female mice(Charles River Laboratories International, Inc.) were intraperitoneally injected with the NCI-N87 cell line, stable transfected with the luciferase gene (NCl-N87_LUC) at a concentration of 2 × 10^6/100µL cells. Experimental groups and treatments are described in the table below (Table 1). Two concentrations of the CC48 molecule, 10 and 20 mg/Kg, were tested in two experimental groups. A third group was treated with the vehicle, consisting of20% DMSO, 10% Cyclodextrin and distilled water. […] The staff involved in the study recorded all the observations on recording forms. The data concerning animals’ body weight, clinical signs, feed intake and TP intake were recorded on the experimental register. All the corrections on data collection forms were made according to the Test Facility SOPs. All derived values, of registered tumor volumes, which are reported in the Tables S2 and S3 and relative graphs, such as mean and standard deviation, represent the rounded-up results of calculation performed with Microsoft Excel. Dunnett’s multiple comparison statistical test was applied.

CB1R = test system: CB1R; set-up: method as in PMID 36657299; settings: cited from earlier work

O=C(NC12CC3CC(CC(C3)C1)C2)c1ccccc1OCc1ccccc1 [CC48]
VEGFA secretion in culture medium (HGC27-S cells): 2.6 pg/mL/cell | serum G-CSF level vs GP1 ([1]; GP2, 10 mg/kg, p < 0.01): significant decrease | serum eotaxin level vs GP1 ([1]; GP3, 20 mg/kg): tended to decrease | serum G-CSF level vs GP1 ([1]; GP3, 20 mg/kg, p < 0.05): maintained at the highest dose | serum p40IL-12 level vs GP1 ([1]; GP3, 20 mg/kg, p < 0.05): significant decrease | fold higher affinity for CB2R compared to CB1R (CB2R): 16 fold | BLI measurement, group MEAN (NCI-N87_LUC cell line; GP2 10mg/kg, DAY 5, n 5 (outlier ID 7 excluded)): 1,45E+05 | BLI measurement, individual animals (NCI-N87_LUC cell line; GP2 10mg/kg, DAY 5): 1,32E+06 and 5,58E+05 and 1,13E+05 and 4,14E+04 and 9,93E+03 and 3,23E+03 | BLI measurement, group MEAN (NCI-N87_LUC cell line; GP2 10mg/kg, DAY 7, n 5): 1,29E+05 | BLI measurement, individual animals (NCI-N87_LUC cell line; GP2 10mg/kg, DAY 7): 1,55E+06 and 5,41E+05 and 7,10E+04 and 2,79E+04 and 3,30E+03 and 2,39E+03 | BLI measurement, group MEAN (NCI-N87_LUC cell line; GP2 10mg/kg, DAY 10, n 5): 1,07E+05 | BLI measurement, individual animals (NCI-N87_LUC cell line; GP2 10mg/kg, DAY 10): 1,30E+06 and 4,73E+05 and 4,20E+04 and 1,70E+04 and 2,56E+03 and 2,69E+03 | BLI measurement, group MEAN (NCI-N87_LUC cell line; GP2 10mg/kg, DAY 14, n 5): 1,83E+05 | BLI measurement, individual animals (NCI-N87_LUC cell line; GP2 10mg/kg, DAY 14): 7,07E+05 and 8,53E+05 and 3,80E+04 and 1,58E+04 and 2,68E+03 and 3,22E+03 | BLI measurement, group MEAN (NCI-N87_LUC cell line; GP2 10mg/kg, DAY 17, n 5): 2,73E+05 | BLI measurement, individual animals (NCI-N87_LUC cell line; GP2 10mg/kg, DAY 17): 8,99E+05 and 1,29E+06 and 6,23E+04 and 1,12E+04 and 1,95E+03 and 1,85E+03 | BLI measurement, group MEAN (NCI-N87_LUC cell line; GP2 10mg/kg, DAY 24, n 5): 3,18E+05 | BLI measurement, individual animals (NCI-N87_LUC cell line; GP2 10mg/kg, DAY 24): 1,09E+06 and 1,51E+06 and 6,35E+04 and 1,11E+04 and 2,24E+03 and 2,96E+03 | BLI measurement, group MEAN (NCI-N87_LUC cell line; GP2 10mg/kg, DAY 31, n 5): 3,12E+05 | BLI measurement, individual animals (NCI-N87_LUC cell line; GP2 10mg/kg, DAY 31): 1,51E+06 and 1,43E+06 and 1,11E+05 and 1,60E+04 and 3,40E+03 and 3,65E+03 | BLI measurement, group MEAN (NCI-N87_LUC cell line; GP2 10mg/kg, DAY 35, n 5): 2,44E+05 | BLI measurement, individual animals (NCI-N87_LUC cell line; GP2 10mg/kg, DAY 35): 2,93E+06 and 1,06E+06 and 1,41E+05 and 1,56E+04 and 3,01E+03 and 3,50E+03 | BLI measurement, group MEAN (NCI-N87_LUC cell line; GP2 10mg/kg, DAY 38, n 5): 4,60E+04 | BLI measurement, individual animals (NCI-N87_LUC cell line; GP2 10mg/kg, DAY 38): 4,74E+06 and 1,04E+05 and 1,11E+05 and 9,13E+03 and 2,90E+03 and 2,69E+03 | BLI measurement, group MEAN (NCI-N87_LUC cell line; GP2 10mg/kg, DAY 41, n 5): 2,12E+05 | BLI measurement, individual animals (NCI-N87_LUC cell line; GP2 10mg/kg, DAY 41): 3,93E+06 and 8,93E+05 and 1,54E+05 and 9,95E+03 and 3,19E+03 and 2,28E+03 | tumor volume vs control group (vehicle) (NCI-N87_LUC cell line; GP2, 10 mg/kg IP every other day, p < 0.01): substantial and significant decrease in tumor volume | BLI measurement, group MEAN (NCI-N87_LUC cell line; GP3 20mg/kg, DAY 5, n 5 (outlier ID 13 excluded)): 2,03E+05 | BLI measurement, individual animals (NCI-N87_LUC cell line; GP3 20mg/kg, DAY 5): 1,03E+06 and 8,12E+05 and 1,11E+05 and 7,63E+04 | BLI measurement, group MEAN (NCI-N87_LUC cell line; GP3 20mg/kg, DAY 7, n 5): 1,10E+05 | BLI measurement, individual animals (NCI-N87_LUC cell line; GP3 20mg/kg, DAY 7): 7,47E+05 and 4,61E+05 and 2,67E+04 and 5,08E+04 | BLI measurement, group MEAN (NCI-N87_LUC cell line; GP3 20mg/kg, DAY 10, n 5): 8,98E+04 | BLI measurement, individual animals (NCI-N87_LUC cell line; GP3 20mg/kg, DAY 10): 3,56E+05 and 3,68E+05 and 3,53E+04 and 3,80E+04 | BLI measurement, group MEAN (NCI-N87_LUC cell line; GP3 20mg/kg, DAY 14, n 5): 1,18E+05 | BLI measurement, individual animals (NCI-N87_LUC cell line; GP3 20mg/kg, DAY 14): 1,23E+06 and 5,29E+05 and 3,27E+04 and 1,72E+04 | BLI measurement, group MEAN (NCI-N87_LUC cell line; GP3 20mg/kg, DAY 17, n 5): 1,51E+05 | BLI measurement, individual animals (NCI-N87_LUC cell line; GP3 20mg/kg, DAY 17): 1,63E+06 and 7,10E+05 and 2,61E+04 and 1,16E+04 | BLI measurement, group MEAN (NCI-N87_LUC cell line; GP3 20mg/kg, DAY 24, n 5): 2,46E+05 | BLI measurement, individual animals (NCI-N87_LUC cell line; GP3 20mg/kg, DAY 24): 1,67E+06 and 1,15E+06 and 3,46E+04 and 3,03E+04 | BLI measurement, group MEAN (NCI-N87_LUC cell line; GP3 20mg/kg, DAY 31, n 5): 2,64E+05 | BLI measurement, individual animals (NCI-N87_LUC cell line; GP3 20mg/kg, DAY 31): 1,22E+06 and 1,26E+06 and 2,79E+04 and 1,85E+04 | BLI measurement, group MEAN (NCI-N87_LUC cell line; GP3 20mg/kg, DAY 35, n 5): 3,58E+05 | BLI measurement, individual animals (NCI-N87_LUC cell line; GP3 20mg/kg, DAY 35): 2,08E+06 and 1,71E+06 and 4,56E+04 and 2,63E+04 | BLI measurement, group MEAN (NCI-N87_LUC cell line; GP3 20mg/kg, DAY 38, n 5): 2,00E+05 | BLI measurement, individual animals (NCI-N87_LUC cell line; GP3 20mg/kg, DAY 38): 2,42E+06 and 9,14E+05 and 3,50E+04 and 4,29E+04 | BLI measurement, group MEAN (NCI-N87_LUC cell line; GP3 20mg/kg, DAY 41, n 5): 2,00E+04 | BLI measurement, individual animals (NCI-N87_LUC cell line; GP3 20mg/kg, DAY 41): 1,34E+06 and 3,58E+04 and 3,11E+04 and 2,06E+04 | tumor volume vs control group (vehicle) (NCI-N87_LUC cell line; GP3, 20 mg/kg IP every other day, p < 0.001): statistically significant difference in the size of the tumor mass | EC50 (CB1R): 489 nM
